These results are taken from article PMC4459817, “Vasculotide reduces endothelial permeability and tumor cell extravasation in the absence of binding to or agonistic activation of Tie2” (EMBO Molecular Medicine, 2015).

The subject of one assay is Tie2 in HMVEC-DBls. The assay can be described thus: in vitro Tie2 phosphorylation (immunoprecipitation/immunoblot), HMVEC-DBl. The format is cell-based, human. The note with it: VT 10 ng/mL vs Ang1 200 ng/mL, presence or absence of serum/supplements, Fig7F. The source says:
Figure 7 In vitro Vasculotide vs. Ang1 stimulations: effects on Tie2 receptor phosphorylation in primary endothelial cells—HUVECs (A-E) and HMVEC-DBls (F) • A–F Primary human umbilical vein endothelial cells (HUVECs) or primary human dermal microvascular endothelial cells (HMVEC-DBls) were stimulated at 80% confluency with Vasculotide (treatment), Ang1 (positive control; ligand of Tie2), PBS (vehicle control), or VEGF (negative control; non-ligand of Tie2). Tie2 was immunoprecipitated from cell lysates and immunoblotted for total Tie2 or phosphotyrosine. […] Source data are available online for this figure. […]
Nodule areas were then […]
unit converted (to μm2) and normalized to total lung section area (including air spaces) using ROI measurements from ImageJ software (NIH).
7. Histological assessment of primary tumor viability and hypoxia
5-μm thick sections of PFA-fixed paraffin-embedded mammary fat pad tumors were subjected to: (i) standard hematoxylin and eosin (H&E) staining to visualize viable vs. necrotic regions; or (ii) standard IHC staining with a goat anti-human carbonic anhydrase IX (CAIX or CA9) antibody (R&D Systems AF2188, 1:80 dilution) plus hematoxylin counterstain to visualize hypoxic regions. […]
IHC staining for CAIX further marks a hypoxic band at the edge of the viability rim bordering the necrotic core – the thickness of this hypoxic edge was averaged over 12 measurements spaced 30o apart (see Fig. 5E).
8. Western immunoblotting for total or phosphorylated Tie2
Cultured ECs and TCs were lysed in RIPA lysis buffer as previously described (Bogdanovic et al, 2006).
Lung/ liver/ kidney tissues, which had been snap-frozen in liquid nitrogen once harvested from mice, were homogenized in RIPA lysis buffer (50 mM Tris-HCl pH 7.5, 150 mM NaCl, 1% Igepal, 0.5% sodium deoxycholate, 0.1% SDS, 1 mM Na3VO4 and protease inhibitors) at 4 °C. […]
Semi-quantitative densitometry analysis of immunoblots was performed using the ChemiGenius2 bioimaging system and GeneSnap/GeneTools software (Syngene). […]

Assay [1] deals with tumor cells across dermal HMVECs. Briefly: modified Boyden chamber, TC-CM stimulated tumor cell migration. Format: cell-based, human. The following applies: Fig4B; for TC migration in presence of TC-CM: 20 ng/mL VT or 400 ng/mL Ang1 vs PBS, paired t-test, n = 6 experimental replicates; for inhibition of TC migration, on average: 20 ng/mL VT. The protocol: To investigate this possibility in vitro, we performed modified Boyden chamber assays where we stimulated ECs with tumor cell-conditioned media (TC-CM)—that is, supplement-reduced EC growth media containing all the cytokines naturally secreted by LM2-4^luc, SN12^luc, or HT29^luc cells over 30 hours of hypoxic incubation (1% O2).
Meta-analyses of treatment effects on dextran permeability (A) and tumor cell migration (B), where each datapoint represents the mean of an independent experiment, averaged over 2–3 biological replicates (inserts) per treatment group and normalized internally within that same experiment.
Endothelial cells (ECs) were grown on cell culture inserts with uncoated 8-μm-pore PET filter membranes to 100% confluency. See Supplementary Fig S4 for detailed timelines. […] Permeability assays: A total of 100 μg of FITC-dextran (Sigma FD-20S) was dispensed into the upper chamber media. After 30 min of thrombin stimulation or 4–6 h of TC-CM stimulation, FITC fluorescence (ex/em = 490/520 nm) was measured from a 50 μl sample of the lower chamber media. Tumor cell extravasation assays: A total of 4 × 10^4 TCs freshly labeled with CellTracker™ Red CMPTX (Invitrogen C34552: ex/em = 577/602 nm) were seeded into each insert. Where EDTA was used in the permeability assay, the assay media was changed to remove EDTA before introducing TCs. After a 15- to 30-h incubation, the ECs and non-migrated TCs above insert membranes were removed with a cotton swab, whereas migrated/‘extravasated’ TCs and ECs below insert membranes were fixed in 4% PFA. Fixed membranes were mounted onto slides with DAPI stain. CMPTX fluorescence from migrated TCs was then quantified from 10× microscopy images using a MATLAB (MathWorks, Natick, MA, USA) script; five images (technical replicates) were analyzed per insert.
TCs were cultured in DMEM High Glucose basal media supplemented with 5% FBS and grown humidified incubators at 37 °C, 21%O2 and 5%CO2 unless otherwise specified. LM2-4 luc is a highly metastatically aggressive variant of the human breast carcinoma MDA-MB-231 cell line (derived through serial in vivo selection of lung metastases from orthotopic implantations in immunodeficient mice) that has been transfected with a firefly luciferase vector (Man et al, 2007; Ebos et al, 2009). HT29luc is a human colon carcinoma cell line also transfected with the luciferase gene (Hackl et al, 2013). SN12luc refers to a luciferase-tagged and highly metastatic clone of a human renal cell carcinoma cell line, SN12-

Consider “CHHHRHSF [Vasculotide, 4-armed maleimide-functionalized polyethylene glycol (PEG) backbone to link together four cysteine-capped T7 peptides, that is, CHHHRHSF]”, for which the Tie2 phosphorylation entry was “did not activate Tie2 receptors in HMVEC-DBls” in the assay with Tie2 in HMVEC-DBls and “did not have similar activity as equimolar Ang1” in the assay with Tie2 in HMVEC-DBls (listed as VT). Moreover, the “TC migration in presence of TC-CM” value in assay [1] was “P = 0.10 for VT”. Besides, the “inhibition of TC migration, on average” value in assay [1] (LM2-4luc-conditioned media) is −43%; in assay [1] (SN12luc-conditioned media), −23%.

B1: recombinant human Ang1 (rhAng1) (ligand, UniProt Q15389 16-498, looked up)
chain: HIGCSNQRRSPENSGRRYNRIQHGQCAYTFILPEHDGNCRESTTDQYNTNALQRDAPHVEPDFSSQKLQHLEHVMENYTQWLQKLENYIVENMKSEMAQIQQNAVQNHTATMLEIGTSLLSQTAEQTRKLTDVETQVLNQTSRLEIQLLENSLSTYKLEKQLLQQTNEILKIHEKNSLLEHKILEMEGKHKEELDTLKEEKENLQGLVTRQTYIIQELEKQLNRATTNNSVLQKQQLELMDTVHNLVNLCTKEGVLLKGGKREEEKPFRDCADVYQAGFNKSGIYTIYINNMPEPKKVFCNMDVNGGGWTVIQHREDGSLDFQRGWKEYKMGFGNPSGEYWLGNEFIFAITSQRQYMLRIELMDWEGNRAYSQYDRFHIGNEKQNYRLYLKGHTGTAGKQSSLILHGADFSTKDADNDNCMCKCALMLTGGWWFDACGPSNLNGMFYTAGQNHGKLNGIKWHYFKGPSYSLRSTTMMIRPLDF
notes: angiopoietin-1, human, recombinant; also called angiopoietin-1; source: bought: R&D Systems (named for the Boyden chamber experiments)
With B1, the Tie2 phosphorylation entry in the assay on Tie2 in HMVEC-DBls is “strongly and consistently activated Tie2 phosphorylation”. For the same molecule, the “TC migration in presence of TC-CM” value in assay [1] is listed as “P < 0.05 for Ang1”.
